≈ marks a conversion by molar mass, not a printed value.
Tests used:
mouse = assay: Toxicity, LD50 i.v. in mouse; format: in vivo; conditions: i.v. in mouse having a weight of 19±1 g
Excerpt: The present penicillins and cephalosporins have generally low toxicity.

Escherichia coli NIHJ = assay: MIC, plate method, standard strains; format: cell-based; conditions: Table 3, standard strain; unit assumed
Method in brief: (§1)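 Minimum inhibitory concentrations are determined by agar plate dilution using Heart infusion agar (pH 7.4). Each plate receives an inoculum of 10^4 cells.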

Klebsiella pneumoniae [1] = assay: MIC, plate method, standard strains; format: cell-based; conditions: Table 3, standard strain; unit assumed
Method in brief: as §1

Proteus vulgaris 3027 = assay: MIC, plate method, standard strains; format: cell-based; conditions: Table 3, standard strain; unit assumed
Method in brief: as §1

[2] = test system: Pseudomonas aeruginosa I.F.O.; assay: MIC, plate method, standard strains; format: cell-based; conditions: Table 3, standard strain; unit assumed
Method in brief: as §1

[3] = test system: Staphylococcus aureus 209p; assay: MIC, plate method, standard strains; format: cell-based; conditions: Table 3, standard strain, Heart infusion agar pH 7.4; unit assumed
Method in brief: as §1

Staphylococcus aureus = assay: MIC against clinical isolates; format: cell-based; conditions: Table 5-1, clinical isolate; unit assumed
Escherichia coli = assay: MIC against clinical isolates; format: cell-based; conditions: Table 5-2, clinical isolate; unit assumed
Pseudomonas aeruginosa = assay: MIC against clinical isolates; format: cell-based; conditions: Table 5-3, clinical isolate, unit assumed
Klebsiella pneumoniae [4] = assay: MIC against clinical isolates; format: cell-based; conditions: Table 5-4, clinical isolate; unit assumed
Shigella flexneri = assay: MIC against clinical isolates; format: cell-based; conditions: Table 5-5, clinical isolate; unit assumed
Protocol: (§2) The minimum inhibitory concentration (MIC) was determined by the plate method disclosed in "Chemotherapy" (Japan), Vol. 16, (1968), pages 98-99. The culture medium used was a Heart infusion agar (pH 7.4). The number of the cells per plate used in the inoculum was 10^4 (10^6 cells/ml).
(§3) MIC was determined in the same manner as in the preceding paragraph (1).

Shigella sonnei = assay: MIC against clinical isolates; format: cell-based; conditions: Table 5-5, clinical isolate; unit assumed
Protocol: as §2, §3

Salmonella typhi-murium = assay: MIC against clinical isolates; format: cell-based; conditions: Table 5-5, clinical isolate; unit assumed
Proteus mirabilis = assay: MIC against clinical isolates; format: cell-based; conditions: Table 5-6, clinical isolate; unit assumed
Proteus vulgaris = assay: MIC against clinical isolates; format: cell-based; conditions: Table 5-6, clinical isolate; unit assumed
Proteus rettgeri = assay: MIC against clinical isolates; format: cell-based; conditions: Table 5-6, clinical isolate; unit assumed
[5] = test system: β-lactamase, Pseudomonas aeruginosa GN 238; assay: Resistant activity against β-lactamase, iodometric assay; format: biochemical; conditions: β-lactamase from Pseudomonas aeruginosa GN 238; Potassium Penicillin G = 100
Method in brief: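 Crude β-lactamase was the sonicated-cell supernatant from P. aeruginosa GN 238, grown 6 h at 37 °C and washed in 0.1 M phosphate pH 7.0. Compound stability to the enzyme measured iodometrically; values are relative activity with potassium penicillin G set at 100.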

SMILES: CCN1CCN(C(=O)N[C@@H](C(=O)N[C@@H]2C(=O)N3[C@@H]2SC(C)(C)[C@@H]3C(=O)O)c2ccccc2)C(=O)C1=O
- LD50 (mouse): greater than 5 g/kg

SMILES: CC(C)N1CCN(C(=O)NC(C(=O)NC2C(=O)N3C2SC(C)(C)C3C(=O)O)c2ccccc2)C(=O)C1=O (single isomer, unassigned) [Compound 40]
- MIC Esche--richin coil NIHJ (Escherichia coli NIHJ): < 0.1 µg/mL
- MIC Klebsiella pneumoniae (Klebsiella pneumoniae [1]): 3.13 µg/mL (≈ 5.89 µM)
- MIC Proteus vulgaris 3027 (Proteus vulgaris 3027): 0.4 µg/mL (≈ 0.752 µM)
- MIC Pseudomonas aeruginosa I.F.C [2]: 6.25 µg/mL (≈ 11.8 µM)
- MIC Staphylococcus aureus 209p [3]: 0.4 µg/mL (≈ 0.752 µM)
- MIC Staphylococcus aureus F-1 (Staphylococcus aureus): 6.25 µg/mL (≈ 11.8 µM)
- MIC Staphylococcus aureus F-2 (Staphylococcus aureus): 3.13 µg/mL (≈ 5.89 µM)
- MIC Staphylococcus aureus F-4 (Staphylococcus aureus): 6.25 µg/mL (≈ 11.8 µM)
- MIC Staphylococcus aureus F-5 (Staphylococcus aureus): > 200 µg/mL
- MIC Staphylococcus aureus MS 8588 (Staphylococcus aureus): 3.13 µg/mL (≈ 5.89 µM)
- MIC Staphylococcus aureus MS 8596 (Staphylococcus aureus): 3.13 µg/mL (≈ 5.89 µM)
- MIC Staphylococcus aureus MS 8684 (Staphylococcus aureus): 3.13 µg/mL (≈ 5.89 µM)
- MIC Escherichia coli GN 3452 (Escherichia coli): 1.57 µg/mL (≈ 2.95 µM)
- MIC Escherichia coli GN 3465 (Escherichia coli): 50 µg/mL (≈ 94.1 µM)
- MIC Escherichia coli GN 3481 (Escherichia coli): 1.57 µg/mL (≈ 2.95 µM)
- MIC Escherichia coli GN 3611 (Escherichia coli): > 200 µg/mL
- MIC Escherichia coli K-1 (Escherichia coli): 1.57 µg/mL (≈ 2.95 µM)
- MIC Escherichia coli K-2 (Escherichia coli): 3.13 µg/mL (≈ 5.89 µM)
- MIC Escherichia coli K-3 (Escherichia coli): > 200 µg/mL
- MIC Pseudomonas aeruginosa GN (Pseudomonas aeruginosa; strain number not given): 6.25 µg/mL (≈ 11.8 µM)
- MIC Pseudomonas aeruginosa GN 82 (Pseudomonas aeruginosa): 6.25 µg/mL (≈ 11.8 µM)
- MIC Pseudomonas aeruginosa GN 163 (Pseudomonas aeruginosa): 6.25 µg/mL (≈ 11.8 µM)
- MIC Pseudomonas aeruginosa GN 221 (Pseudomonas aeruginosa): 6.25 µg/mL (≈ 11.8 µM)
- MIC Pseudomonas aeruginosa GN 376 (Pseudomonas aeruginosa): 3.13 µg/mL (≈ 5.89 µM)
- MIC Pseudomonas aeruginosa GN 383 (Pseudomonas aeruginosa): 6.25 µg/mL (≈ 11.8 µM)
- MIC Pseudomonas aeruginosa GN 1091 (Pseudomonas aeruginosa): 6.25 µg/mL (≈ 11.8 µM)
- MIC Pseudomonas aeruginosa GN 2987 (Pseudomonas aeruginosa): 3.13 µg/mL (≈ 5.89 µM)
- MIC Klebsiella pneumoniae GN 917 (Klebsiella pneumoniae [4]): 6.25 µg/mL (≈ 11.8 µM)
- MIC Klebsiella pneumoniae GN 4081 (Klebsiella pneumoniae [4]): 100 µg/mL (≈ 188 µM)
- MIC Klebsiella pneumoniae GN 4117 (Klebsiella pneumoniae [4]): 50 µg/mL (≈ 94.1 µM)
- MIC Shigella flexneri JS 11215 (Shigella flexneri): 50 µg/mL (≈ 94.1 µM)
- MIC Shigella flexneri JS 11839 (Shigella flexneri): 3.13 µg/mL (≈ 5.89 µM)
- MIC Shigella sonnei JS 11232 (Shigella sonnei): 50 µg/mL (≈ 94.1 µM)
- MIC Shigella sonnei JS 11755 (Shigella sonnei): 3.13 µg/mL (≈ 5.89 µM)
- MIC Salmonella typhi-murium SL 2136 (Salmonella typhi-murium): > 200 µg/mL
- MIC Proteus mirabilis (Proteus mirabilis): < 0.4 µg/mL
- MIC Proteus vulgaris (Proteus vulgaris): < 0.4 µg/mL
- MIC Proteus rettgeri (Proteus rettgeri): 6.25 µg/mL (≈ 11.8 µM)
- Relative activity (%), resistant activity against β-lactamase [5]: 15%
